Source: US12357619B2, “Noradrenergic and specific serotonergic anxiolytic and antidepressant, method for the production and use thereof” (ALLA CHEM, LLC, priority 2020, dated 2025)
Where two headings read alike, the source gives them in different places.

Key:
[1] = system: people with generalized anxiety disorder (GAD); experiment: Randomized double-blind placebo-controlled GAD study, visual analog scale (VAS); format: in vivo, human; conditions: after 8 weeks
Description: (§1) Example 12. Efficacy and safety study of the oral drug of this invention made as a pharmaceutical composition of this invention in capsules. […] During the study, 3 scheduled visits were conducted in Week 2, Week 4, and Week 8 to assess the effectiveness and safety of the therapy as well as drug inventory and administration. During all of those visits, the patient's diary was checked, a drug inventory was made and the patients' compliance was assessed. In addition, adverse events, concomitant therapy, and vital signs were evaluated, urine drug screen was performed, and assessments using Hamilton Anxiety Rating Scale (HARS), Hamilton Depression Scale (HAMD), Clinical Global Impression-Severity (CGI-S), Clinical Global Impression-Improvement (CGI-I), and Visual Analog Scale (VAS) were made; women of child-bearing potential will take a urine pregnancy test. Also, during visits at Week 4 and Week 8 a physical examination was performed, body weight was measured, an ECG was performed in 12 leads and blood and urine samples were obtained for laboratory tests, namely: urinalysis and biochemical blood analysis, PK analysis before and 1 hour after taking the study drug (SD), and urinalysis. At Week 4, a blood sample was also obtained for genotyping by CYP2D6. […] During this time, a possible development of SD withdrawal syndrome against the background of placebo was evaluated. […]

[2] = system: people with generalized anxiety disorder (GAD); experiment: Randomized double-blind placebo-controlled GAD study, clinical global impression-severity (CGI-S); format: in vivo, human; conditions: after 8 weeks
Description: as §1

[3] = system: people with generalized anxiety disorder (GAD); experiment: Randomized double-blind placebo-controlled GAD study, clinical global impression-improvement (CGI-I); format: in vivo, human; conditions: after 8 weeks
Description: as §1

[4] = system: people with generalized anxiety disorder (GAD); experiment: Randomized double-blind placebo-controlled GAD study, Hamilton depression scale (HAMD); format: in vivo, human; conditions: after 8 weeks
Description: as §1

Serotonin 5-HT2C = target: T1, Serotonin 5-HT2C (Homo sapiens, UniProt P28335); experiment: Receptor activities, Ki (Table 1); format: binding
T1 sequence (P28335 33-458): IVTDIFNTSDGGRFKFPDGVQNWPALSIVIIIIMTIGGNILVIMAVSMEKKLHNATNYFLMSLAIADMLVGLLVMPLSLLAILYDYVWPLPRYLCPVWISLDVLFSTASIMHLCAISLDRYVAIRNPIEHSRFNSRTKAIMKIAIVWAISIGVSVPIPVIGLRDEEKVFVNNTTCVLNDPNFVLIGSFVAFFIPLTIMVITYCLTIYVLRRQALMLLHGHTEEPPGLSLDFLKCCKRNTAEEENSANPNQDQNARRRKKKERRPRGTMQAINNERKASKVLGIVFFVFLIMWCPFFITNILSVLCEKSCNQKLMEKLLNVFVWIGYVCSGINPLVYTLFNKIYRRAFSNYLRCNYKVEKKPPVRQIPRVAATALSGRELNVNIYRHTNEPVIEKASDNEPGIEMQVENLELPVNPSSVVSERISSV

Adrenergic α2C = target: T2, Adrenergic α2C (Homo sapiens, UniProt P18825); experiment: Receptor activities, Ki (Table 1); format: binding
T2 sequence (P18825 1-462): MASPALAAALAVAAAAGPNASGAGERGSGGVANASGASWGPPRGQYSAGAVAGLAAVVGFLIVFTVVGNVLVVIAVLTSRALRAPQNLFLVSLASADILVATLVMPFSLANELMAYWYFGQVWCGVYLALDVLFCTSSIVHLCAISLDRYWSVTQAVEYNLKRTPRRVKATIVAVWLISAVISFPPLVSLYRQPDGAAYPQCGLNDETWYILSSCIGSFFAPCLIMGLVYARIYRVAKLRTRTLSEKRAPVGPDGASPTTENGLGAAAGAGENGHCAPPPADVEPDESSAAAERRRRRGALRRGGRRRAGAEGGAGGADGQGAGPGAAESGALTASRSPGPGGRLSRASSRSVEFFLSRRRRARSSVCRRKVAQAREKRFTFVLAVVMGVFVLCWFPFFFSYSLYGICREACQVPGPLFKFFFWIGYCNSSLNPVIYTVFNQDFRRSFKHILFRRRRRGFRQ

[5] = Pharmacokinetics, single oral administration of capsules in healthy volunteers (Example 10); format: in vivo, human; conditions: for AUC(0-inf) / Tmax / Cmax: capsules; for AUC(0-inf) / Tmax: 8 volunteers; for Cmax: average of 8 volunteers
Text: Clinical study of the safety of the oral drug of this invention.

healthy volunteers = experiment: Safety, single oral administration of capsules in healthy volunteers (Example 10); format: in vivo, human
Description: Example 10. Clinical study of the safety of the oral drug of this invention. An open-label clinical trial of the pharmacokinetics of the antipsychotic drug made as a pharmaceutical composition of this invention in capsules, was conducted with a single oral administration in 32 healthy volunteers at doses of 2 mg/day (cohort 1, 8 volunteers), 4 mg/day (cohort 1, 8 volunteers), 10 mg/day (cohort 1, 8 volunteers), and 20 mg/day (cohort 1, 8 volunteers), expressed as base A, in accordance with the recommendations of “Good clinical practice (GCP)” on physically and mentally healthy men aged 20-50 years with a body mass index of […].

[6] = male, human, blood, single oral dose 2 mg
[7] = male, human, blood, single oral dose 4 mg
[8] = male, human, blood, single oral dose 10 mg
[9] = male, human, blood, single oral dose 20 mg
[10] = single doses of 2, 4, 10, and 20 mg, healthy volunteers

Question: For `Cc1ccc2c(c1)c1c(n2CCc2ccccc2)CCN(C)C1.Cl` [A•HCl, 2,8-dimethyl-5-(2-phenylethyl)-2,3,4,5-tetrahydro-1H-pyrido[4,3-b]indole hydrochloride], which “VAS average change (standard error)” value ([1]; 40 mg, N = 42, average at Week 0 24.1) is on record?
Answer: −9.5 (3.24)

Question: And the “VAS average change (standard error)” value ([1]; 60 mg, N = 44, average at Week 0 27.4)?
Answer: −11.1 (3.23)

Question: And the “CGI-S average change (standard error)” value ([2]; 40 mg, N = 42, average at Week 0 4.24)?
Answer: −1.34 (0.19)

Question: What about the “CGI-S average change (standard error)” value ([2]; 60 mg, N = 44, average at Week 0 4.28) of the same compound?
Answer: −1.21 (0.19)

Question: What about the “CGI-I average change (standard error)” value ([3]; 40 mg, N = 42, average at Week 0 4.00) of the same compound?
Answer: −1.63 (0.14)

Question: What about the “CGI-I average change (standard error)” value ([3]; 60 mg, N = 44, average at Week 0 4.03) of the same compound?
Answer: −1.68 (0.14)

Question: And the “HAMD average change (standard error)” value ([4]; 40 mg, N = 42, average at Week 0 10.9)?
Answer: −5.2 (0.57)

Question: And the “HAMD average change (standard error)” value ([4]; 60 mg, N = 44, average at Week 0 10.9)?
Answer: −4.4 (0.56)

Question: And the Ki (Serotonin 5-HT2C)?
Answer: 1.17 nM

Question: And the Ki (Adrenergic α2C)?
Answer: 3.55 nM

Question: And the “Dose dependence of Cmax and AUC” value ([5]; dose range from 2 to 20 mg)?
Answer: linear increase in Cmax and AUC

Question: What about the AUC(0-inf) [5, 6] of the same compound?
Answer: 0.0946 ng·h/mL

Question: And the Tmax [5, 6]?
Answer: 1 h

Question: And the Cmax ([5]; male, human, blood, single oral dose 2 mg, read-out: Cmax)?
Answer: 0.0021 ng/mL

Question: What about the AUC(0-inf) [5, 7] of the same compound?
Answer: 0.211 ng·h/mL

Question: And the Tmax [5, 7]?
Answer: 1 h

Question: What about the AUC(0-inf) [5, 8] of the same compound?
Answer: 0.462 ng·h/mL

Question: What about the Tmax [5, 8] of the same compound?
Answer: 0.625 h

Question: What about the AUC(0-inf) [5, 9] of the same compound?
Answer: 0.834 ng·h/mL

Question: And the Tmax [5, 9]?
Answer: 1 h

Question: What about the half-life ([5]; male, human, blood, single oral doses 2 to 20 mg, read-out: Harmonic mean half-life) of the same compound?
Answer: ≤ 14 h

Question: And the Cmax ([5]; single oral dose 4 mg)?
Answer: 0.0229 ng/mL

Question: And the Cmax ([5]; single oral dose 10 mg)?
Answer: 0.0537 ng/mL

Question: And the Cmax ([5]; single oral dose 20 mg)?
Answer: 0.0841 ng/mL

Question: And the “Time at which the maximum concentration in the blood of the base (A) is reached” value ([5]; single oral doses 2 to 20 mg)?
Answer: about an hour

Question: What about the Side effects observed (healthy volunteers; 20-mg cohort, single dose) of the same compound?
Answer: drowsiness, agitation and paresthesia

Question: And the “Effect on the parameters of plasma and urine” value (healthy volunteers; [10])?
Answer: neither significantly affect the parameters of plasma and urine

Question: What about the Tolerability (healthy volunteers; [10]) of the same compound?
Answer: well tolerated
